In the first assay the target is T1, ACE (Oryctolagus cuniculus, UniProt P12822).
T1 construct: ACE extracted from rabbit lungs; from tissue; host or cells: rabbit lung
T1 sequence (P12822 34-1310): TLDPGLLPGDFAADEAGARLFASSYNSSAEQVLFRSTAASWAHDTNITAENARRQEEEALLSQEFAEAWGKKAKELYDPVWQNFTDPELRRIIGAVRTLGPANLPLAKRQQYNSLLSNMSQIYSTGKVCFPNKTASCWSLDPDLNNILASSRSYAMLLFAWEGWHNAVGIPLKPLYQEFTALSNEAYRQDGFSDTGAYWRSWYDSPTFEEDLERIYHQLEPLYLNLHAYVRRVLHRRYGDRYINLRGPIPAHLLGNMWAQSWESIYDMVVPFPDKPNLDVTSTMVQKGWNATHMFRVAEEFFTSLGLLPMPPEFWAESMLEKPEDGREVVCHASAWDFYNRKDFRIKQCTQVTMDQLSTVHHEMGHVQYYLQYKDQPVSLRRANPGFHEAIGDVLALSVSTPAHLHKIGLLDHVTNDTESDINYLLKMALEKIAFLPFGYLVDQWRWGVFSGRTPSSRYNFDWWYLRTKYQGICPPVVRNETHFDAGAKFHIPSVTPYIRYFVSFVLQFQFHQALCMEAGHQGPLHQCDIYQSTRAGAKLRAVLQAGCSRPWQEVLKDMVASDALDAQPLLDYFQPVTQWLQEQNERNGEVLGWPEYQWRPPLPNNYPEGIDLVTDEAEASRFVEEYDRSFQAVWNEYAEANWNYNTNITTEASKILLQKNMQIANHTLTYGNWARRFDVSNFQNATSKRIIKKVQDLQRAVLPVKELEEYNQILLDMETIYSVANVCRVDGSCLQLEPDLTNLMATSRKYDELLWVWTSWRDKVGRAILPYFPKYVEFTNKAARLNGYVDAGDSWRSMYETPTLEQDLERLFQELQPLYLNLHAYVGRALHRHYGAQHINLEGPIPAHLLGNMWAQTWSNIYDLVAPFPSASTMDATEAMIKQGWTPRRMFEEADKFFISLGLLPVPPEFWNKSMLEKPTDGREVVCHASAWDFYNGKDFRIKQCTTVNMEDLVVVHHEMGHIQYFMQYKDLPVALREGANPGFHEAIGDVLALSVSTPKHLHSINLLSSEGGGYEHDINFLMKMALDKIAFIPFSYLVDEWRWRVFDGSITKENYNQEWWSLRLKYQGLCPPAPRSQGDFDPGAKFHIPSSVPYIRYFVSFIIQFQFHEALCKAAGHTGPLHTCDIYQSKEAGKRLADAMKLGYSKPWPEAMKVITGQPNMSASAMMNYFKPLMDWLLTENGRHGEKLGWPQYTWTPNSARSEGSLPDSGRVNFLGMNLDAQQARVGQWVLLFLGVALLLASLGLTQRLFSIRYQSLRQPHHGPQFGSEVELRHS
Briefly: in vitro inhibition of ACE (procedure of D. W. Cushman et al., hippurylhistidylleucine substrate). Format: biochemical. As to conditions: ACE extracted from rabbit lungs, pH 8.3, 37° C., 30 minutes, hippuric acid at 228 nm. From the text:
As noted above, the compounds of the present invention have the ability to inhibit the activity of ACE, the enzyme which converts angiotensin I to angiotensin II and also inactivates bradykinin. The physiological activity of the compounds of the invention can be evaluated by determining the concentration of the test compound required to inhibit the activity of ACE by 50% in vitro (IC50), for example by the procedure of D. W. Cushman et al. [Biochemical Pharmacology, 20, 1637 (1971)]. Specifically, solutions of ACE extracted from rabbit lungs and, as substrate, hippurylhistidylleucine, to which had been added the test compound at various concentrations, were added to a borate buffer solution containing sodium chloride, and the pH was adjusted to a value of 8.3. The enzymatic reaction was allowed to proceed at 37° C. for 30 minutes, after which time the reaction was terminated by adding 1N aqueous hydrochloric acid. The hippuric acid formed by this reaction was extracted with ethyl acetate and the solvent was then distilled from the extract. The residual hippuric acid was dissolved in water. The amount of hippuric acid in the resulting aqueous solution was determined by the absorbency to ultraviolet radiation at 228 nm. The resulting values were then plotted to form a curve indicating the relationship between the amount of hippuric acid formed and the concentration of the test compound. The IC50 value can be obtained by reading on this curve the concentration of the test compound which reduces the amount of hippuric acid formed to one half of that formed when no test compound is present.
What is called IC50 is the concentration that gives 50% inhibition. Higher therefore signals lower potency. `O=C(O)CN1C[C@@H](c2ccccc2)CC[C@H](N[C@@H](CCc2ccccc2)C(=O)O)C1=O` (single isomer, unassigned) [Test Compound A]: inhibition was half-maximal at 1.4 nM (IC50).
Same read-out and setting: next, `O=C(O)CN1C[C@H](c2ccccc2)CC[C@H](N[C@@H](CCc2ccccc2)C(=O)O)C1=O` (single isomer, unassigned) [Test Compound B]: 2 nM.
Same read-out and setting: next, `O=C(O)CN1C[C@@H](c2ccc(F)cc2)CC[C@H](N[C@@H](CCc2ccccc2)C(=O)O)C1=O` [Test Compound C, α-{3(S)-[1(S)-carboxy-3-phenylpropylamino]-6(R)-(p-fluorophenyl)-2-oxoperhydroazepin-1-yl}acetic acid]: 1.7 nM.

For another assay, the system named is angiotensin I-induced hypertension. Briefly: inhibitory effect on angiotensin I-induced hypertension in vivo after oral administration to rats.
Conditions: not given
On the procedure:
In addition, the compounds of Examples 2, 3, 7, 10 and 12 were tested in vivo. Each of these test compounds was administered orally to rats and its inhibitory effect on angiotensin I-induced hypertension was determined.
`CCOC(=O)[C@H](CCc1ccccc1)N[C@H]1CC[C@H](c2ccccc2)CN(CC(=O)O)C1=O.Cl` (single isomer, unassigned) [Example 2]: the “inhibitory effect on angiotensin I-induced hypertension” value is “strong and lasting inhibitory effects”.
On the same count and under the same terms, next, `CCOC(=O)[C@H](CCc1ccccc1)N[C@H]1CC[C@@H](c2ccccc2)CN(CC(=O)O)C1=O.Cl` (single isomer, unassigned) [Example 3]: “strong and lasting inhibitory effects”; `CCOC(=O)[C@H](CCc1ccccc1)N[C@H]1CC[C@H](c2ccc(F)cc2)CN(CC(=O)O)C1=O.Cl` [Example 7, α-{3(S)-[1(S)-Ethoxycarbonyl-3-phenylpropylamino]-6(R)-(p-fluorophenyl)-2-oxoperhydroazepin-1-yl}acetic acid hydrochloride]: “strong and lasting inhibitory effects”; `CCCCOC(=O)[C@H](CCc1ccccc1)N[C@H]1CC[C@H](c2ccc(F)cc2)CN(CC(=O)O)C1=O.Cl` [Example 10, α-{3(S)-[1(S)-Butoxycarbonyl-3-phenylpropylamino]-6(R)-(p-fluorophenyl)-2-oxoperhydroazepin-1-yl}acetic acid hydrochloride]: “strong and lasting inhibitory effects”.
On the same count and under the same terms, next, `CCCCOC(=O)[C@H](CCc1ccccc1)N[C@H]1CC[C@H](c2ccccc2)CN(CC(=O)O)C1=O.Cl` [Example 12, α-{3(S)-[1(S)-Butoxycarbonyl-3-phenylpropylamino]-2-oxo-6(R)-phenylperhydroazepin-1-yl}acetic acid hydrochloride]: “strong and lasting inhibitory effects”.
